The target of the assay is T1, Chk1 (Homo sapiens, UniProt O14757).
T1 construct: purchased Upstate Biotechnology
T1 sequence (O14757 1-476): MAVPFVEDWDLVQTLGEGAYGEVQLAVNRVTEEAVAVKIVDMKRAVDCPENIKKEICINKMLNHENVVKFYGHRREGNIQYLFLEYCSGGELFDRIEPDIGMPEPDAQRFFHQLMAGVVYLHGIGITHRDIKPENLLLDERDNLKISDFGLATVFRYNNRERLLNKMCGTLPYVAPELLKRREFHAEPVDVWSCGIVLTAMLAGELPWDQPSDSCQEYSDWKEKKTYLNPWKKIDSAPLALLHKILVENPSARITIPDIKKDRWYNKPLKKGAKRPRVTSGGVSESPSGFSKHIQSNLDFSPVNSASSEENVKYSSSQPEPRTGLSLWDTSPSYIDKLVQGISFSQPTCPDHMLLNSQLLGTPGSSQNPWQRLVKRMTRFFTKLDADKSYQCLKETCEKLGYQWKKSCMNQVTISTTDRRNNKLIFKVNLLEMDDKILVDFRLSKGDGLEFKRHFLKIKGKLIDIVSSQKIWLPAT
Put plainly: Chk1 kinase assay: incorporation of γ-33P ATP into immobilized myelin basic protein. To be noted: Table 11; Chk1 only; read-out: Chk1 IC50. In kind it is biochemical. In short, it runs like this: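 Radiometric filter-free format: Chk1 10 nM, 10 μM ATP; Chk2 20 nM, 30 μM ATP; γ-33P ATP tracer; immobilized MBP substrate; Hepes pH 7.6, 10 mM MgCl2, 1 mM DTT; 1 h RT; 1% DMSO. Scintillation counting of washed plates. IC50/Ki from curve fit.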

Bounds are passed on as bounds.

For orientation: IC50 means the concentration that gives 50% inhibition. In the case of `Cn1nc(-c2nc(-c3cccc(C(=O)NCc4ccccc4)c3)cnc2N)nc1-c1ccccc1` [Example 672, 3-[5-amino-6-(1-methyl-5-phenyl-1H-1,2,4-triazol-3-yl)pyrazin-2-yl]-N-(phenylmethyl)benzamide], the IC50 is ≥ 10 µM. Take `COC[C@H]1CCCN1/N=C(\C)c1nc(-c2cccc(C(=O)NCc3ccccc3)c2)cnc1N` [Example 673, 3-[5-amino-6-((1E)-N-{(2R)-2-[(methyloxy)methyl]pyrrolidin-1-yl}ethanimidoyl)pyrazin-2-yl]-N-(phenylmethyl)benzamide]: the IC50 was in the range of 0.05 to 1 µM. The value for `C/C(=N\N1CCCCCC1)c1nc(-c2cccc(C(=O)NCc3ccccc3)c2)cnc1N` [Example 674, 3-{5-amino-6-[(1E)-N-azepan-1-ylethanimidoyl]pyrazin-2-yl}-N-(phenylmethyl)benzamide] was 0.05 to 1 µM. On to `Nc1ncc(-c2cccc(C(=O)NCc3ccccc3)c2)nc1/C=N/NCc1ccccc1` [Example 675, 3-(5-amino-6-{(E)-[(phenylmethyl)hydrazono]methyl}pyrazin-2-yl)-N-(phenylmethyl)benzamide], for which the IC50 was ≥ 10 µM.

`N=C(N)N/N=C/c1nc(-c2cccc(C(=O)NCc3ccccc3)c2)cnc1N` [Example 676, 3-[5-amino-6-((E)-{[amino(imino)methyl]hydrazono}methyl)pyrazin-2-yl]-N-(phenylmethyl)benzamide]: the IC50 is ≥ 10 µM. Take `Nc1ncc(-c2cccc(C(=O)NCc3ccccc3)c2)nc1/C=N/NCCO` [Example 677, 3-(5-amino-6-{(E)-[(2-hydroxyethyl)hydrazono]methyl}pyrazin-2-yl)-N-(phenylmethyl)benzamide]: the IC50 was 1 to 10 µM. In the case of `Nc1ncc(-c2cccc(C(=O)NCc3ccccc3)c2)nc1/C=N/Nc1ccccn1` [Example 678, 3-{5-amino-6-[(E)-(pyridin-2-ylhydrazono)methyl]pyrazin-2-yl}-N-(phenylmethyl)benzamide] it was ≥ 10 µM; in that of `N#Cc1ccc(N/N=C/c2nc(-c3cccc(C(=O)NCc4ccccc4)c3)cnc2N)cc1` [Example 679, 3-(5-amino-6-{(E)-[(4-cyanophenyl)hydrazono]methyl}pyrazin-2-yl)-N-(phenylmethyl)benzamide], ≥ 10 µM; in that of `Cc1ccc(N/N=C/c2nc(-c3cccc(C(=O)NCc4ccccc4)c3)cnc2N)cc1` [Example 680, 3-(5-amino-6-{(E)-[(4-methylphenyl)hydrazono]methyl}pyrazin-2-yl)-N-(phenylmethyl)benzamide], ≥ 10 µM. For `Nc1ncc(-c2cccc(C(=O)NCc3ccccc3)c2)nc1/C=N/O` [Example 681, 3-{5-amino-6-[(E)-(hydroxyimino)methyl]pyrazin-2-yl}-N-(phenylmethyl)benzamide], the IC50 was 1 to 10 µM. For `Nc1ncc(-c2cccc(CO)c2)nc1-c1nc(-c2ccccn2)n[nH]1` [Example 682, {3-[5-amino-6-(3-pyridin-2-yl-1H-1,2,4-triazol-5-yl)pyrazin-2-yl]phenyl}methanol], the IC50 was 1 to 10 µM. In the case of `Nc1ncc(-c2cccc(CN[C@@H]3CCc4ccccc43)c2)nc1-c1nc(C2CCCNC2)n[nH]1` (stereo partly drawn) [Example 683, 5-(3-{[(1R)-2,3-dihydro-1H-inden-1-ylamino]methyl}phenyl)-3-(3-piperidin-3-yl-1H-1,2,4-triazol-5-yl)pyrazin-2-amine], the IC50 is < 0.05 µM. As for `CN(C)c1ccc(C(=O)NCCCNC(=O)c2nc(-c3cccc(C(=O)NCc4ccccc4)c3)cnc2N)cc1` [Example 684, 3-amino-N-[3-({[4-(dimethylamino)phenyl]carbonyl}amino)propyl]-6-(3-{[(phenylmethyl)amino]carbonyl}phenyl)pyrazine-2-carboxamide], the IC50 was ≥ 10 µM. On to `Nc1ncc(-c2cccc(CN[C@H]3CCc4ccccc43)c2)nc1C(=O)N[C@H]1CCNC1` [Example 685, 3-amino-6-(3-{[(1S)-2,3-dihydro-1H-inden-1-ylamino]methyl}phenyl)-N-[(3S)-pyrrolidin-3-yl]pyrazine-2-carboxamide], for which the IC50 is < 0.05 µM. For the molecule `CC(C)(C)OC(=O)N1CCC(N2CC[C@H](NC(=O)c3nc(-c4cccc(C(=O)NCc5ccccc5)c4)cnc3N)C2)CC1` [Example 686, 1,1-dimethylethyl 4-[(3S)-3-({[3-amino-6-(3-{[(phenylmethyl)amino]carbonyl}phenyl)pyrazin-2-yl]carbonyl}amino)pyrrolidin-1-yl]piperidine-1-carboxylate], the IC50 is 1 to 10 µM. For `Nc1ncc(-c2cccc(C(=O)NCc3ccccc3)c2)nc1C(=O)N[C@H]1CCN(C2CCNCC2)C1` [Example 687, 3-amino-6-(3-{[(phenylmethyl)amino]carbonyl}phenyl)-N-[(3S)-1-piperidin-4-ylpyrrolidin-3-yl]pyrazine-2-carboxamide], the IC50 was 1 to 10 µM. Regarding `CC(C)(C)OC(=O)N1CCC[C@@H]1CN1CC[C@H](NC(=O)c2nc(-c3cccc(C(=O)NCc4ccccc4)c3)cnc2N)C1` [Example 688, 1,1-dimethylethyl (2R)-2-{[(3S)-3-({[3-amino-6-(3-{[(phenylmethyl)amino]carbonyl}phenyl)pyrazin-2-yl]carbonyl}amino)pyrrolidin-1-yl]methyl}pyrrolidine-1-carboxylate], the IC50 was ≥ 10 µM. Consider `Nc1ncc(-c2cccc(C(=O)NCc3ccccc3)c2)nc1C(=O)N[C@H]1CCN(C[C@H]2CCCN2)C1` [Example 689, 3-amino-6-(3-{[(phenylmethyl)amino]carbonyl}phenyl)-N-{(3S)-1-[(2R)-pyrrolidin-2-ylmethyl]pyrrolidin-3-yl}pyrazine-2-carboxamide], for which the IC50 lay within 1 to 10 µM. In the case of `CN(C)c1ccc(CN2CC[C@H](NC(=O)c3nc(-c4cccc(C(=O)NCc5ccccc5)c4)cnc3N)C2)cc1` [Example 690, 3-amino-N-((3S)-1-{[4-(dimethylamino)phenyl]methyl}pyrrolidin-3-yl)-6-(3-{[(phenylmethyl)amino]carbonyl}phenyl)pyrazine-2-carboxamide] it was 1 to 10 µM. Turning to `CN(C)c1ccc(NC(=O)NCCNC(=O)c2nc(-c3cccc(C(=O)NCc4ccccc4)c3)cnc2N)cc1` [Example 691, 3-amino-N-{2-[({[4-(dimethylamino)phenyl]amino}carbonyl)amino]ethyl}-6-(3-{[(phenylmethyl)amino]carbonyl}phenyl)pyrazine-2-carboxamide], the IC50 was ≥ 10 µM. `CN(C)c1ccc(C(=O)NCCNC(=O)c2nc(-c3cccc(C(=O)NCc4ccccc4)c3)cnc2N)cc1` [Example 692, 3-amino-N-[2-({[4-(dimethylamino)phenyl]carbonyl}amino)ethyl]-6-(3-{[(phenylmethyl)amino]carbonyl}phenyl)pyrazine-2-carboxamide]: the IC50 was ≥ 10 µM. The value for `N=C(NNc1ccccn1)c1nc(-c2cccc(C(=O)NCc3ccccc3)c2)cnc1N` [Example 693, 3-{5-amino-6-[imino(2-pyridin-2-ylhydrazino)methyl]pyrazin-2-yl}-N-(phenylmethyl)benzamide] was ≥ 10 µM; that for `Nc1ncc(-c2cccc(C(=O)NCc3ccccc3)c2)nc1CN1CCOCC1` [Example 694, 3-[5-amino-6-(morpholin-4-ylmethyl)pyrazin-2-yl]-N-(phenylmethyl)benzamide] was ≥ 10 µM; that for `CCOC(=O)C1CCN(Cc2nc(-c3cccc(C(=O)NCc4ccccc4)c3)cnc2N)CC1` [Example 695, ethyl 1-{[3-amino-6-(3-{[(phenylmethyl)amino]carbonyl}phenyl)pyrazin-2-yl]methyl}piperidine-4-carboxylate] was ≥ 10 µM. Turning to `Nc1ncc(-c2cccc(C(=O)NCc3ccccc3)c2)nc1C(=O)N[C@H]1CCN(Cc2ccccn2)C1` [Example 696, 3-amino-6-(3-{[(phenylmethyl)amino]carbonyl}phenyl)-N-[(3S)-1-(pyridin-2-ylmethyl)pyrrolidin-3-yl]pyrazine-2-carboxamide], the IC50 lay in the range of 0.05 to 1 µM. On to `COC(=O)[C@@H](NC(=O)c1nc(-c2cccc(C(=O)NCc3ccccc3)c2)cnc1N)[C@@H](C)O` [Example 697, methyl N-{[3-amino-6-(3-{[(phenylmethyl)amino]carbonyl}phenyl)pyrazin-2-yl]carbonyl}threoninate], for which the IC50 is ≥ 10 µM. The value for `Nc1ncc(-c2cccc(CO)c2)nc1-c1nc(C2CCCCN2)n[nH]1` (stereo not drawn) [Example 698, {3-[5-amino-6-(3-piperidin-2-yl-1H-1,2,4-triazol-5-yl)pyrazin-2-yl]phenyl}methanol] was ≥ 10 µM; that for `CCNc1ncc(-c2cccc(C(=O)NCc3ccccc3)c2)nc1C(=O)N[C@H]1CCN(CC)C1` [Example 699, 3-(ethylamino)-N-[(3S)-1-ethylpyrrolidin-3-yl]-6-(3-{[(phenylmethyl)amino]carbonyl}phenyl)pyrazine-2-carboxamide] was ≥ 10 µM; that for `CCN1CC[C@H](NC(=O)c2nc(-c3cccc(C(=O)NCc4ccccc4)c3)cnc2N)C1` [Example 700, 3-amino-N-[(3S)-1-ethylpyrrolidin-3-yl]-6-(3-{[(phenylmethyl)amino]carbonyl}phenyl)pyrazine-2-carboxamide] was 0.05 to 1 µM. For `Cn1nc(-c2nc(-c3cccc(C(=O)NCc4ccccc4)c3)cnc2N)nc1C1CCCCN1` (stereo not drawn) [Example 701, 3-[5-amino-6-(1-methyl-5-piperidin-2-yl-1H-1,2,4-triazol-3-yl)pyrazin-2-yl]-N-(phenylmethyl)benzamide], the IC50 is ≥ 10 µM.

The values above are taken from patent US7704995B2 (Exelixis, Inc., priority 2003, dated 2010).
